Reference: US20250332173A1, “COMPOUNDS AND METHODS FOR MODULATING NUCLEIC ACID SPLICING” (REMIX THERAPEUTICS INC., priority 2021, published 2025)
Like-named read-outs stand apart in the source and are kept apart here.

Assays:
Assay type in all cases: cell-based, human
HTT mRNA = test: RT-qPCR splicing assay, HTT canonical junction (CJ) and alternative junction (AJ) mRNA; conditions: Homo sapiens; for AC50: increase in HTT alternative junction (AJ) mRNA, read-out: HTT AJ AC50
Summary of the method: (§1)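 Read-out is one-step RT-qPCR on cell lysates detecting the exon-exon junction of each isoform, normalized to a housekeeping gene (PPIA in A673, GAPDH or GUSB in K562).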

MYB mRNA = test: RT-qPCR splicing assay, MYB canonical junction (CJ) and alternative junction (AJ) mRNA; conditions: Homo sapiens; for AC50: increase in MYB alternative junction (AJ) mRNA, read-out: MYB AJ AC50
Summary of the method: as §1

SMN2 mRNA = test: RT-qPCR splicing assay, SMN2 canonical junction (CJ) mRNA; conditions: Homo sapiens
Summary of the method: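 A673 or K562 cells were treated for 24 h at 37 °C with compound in 11-point 3-fold dilution (top 10 uM final, DMSO ≤0.25%). Lysates then went to one-step RT-qPCR measuring canonical-junction mRNA, normalized to GAPDH, GUSB or PPIA.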

[1] = decrease in HTT canonical junction (CJ) mRNA, RT-qPCR, read-out: HTT CJ IC50
[2] = canonical junction qPCR panel, Table 5, read-out: HTT (decrease in CJ mRNA levels, IC50)
[3] = canonical junction qPCR panel, Table 5, read-out: MYB (decrease in CJ mRNA levels, IC50)
[4] = decrease in MYB canonical junction (CJ) mRNA, RT-qPCR, read-out: MYB CJ IC50
[5] = canonical junction qPCR panel, Table 5, read-out: SMN2 (decrease in CJ mRNA levels, IC50)
[6] = Table 5 panel, canonical junction qPCR, compound concentration having 50% response in CJ decrease, read-out: HTT IC50 (decrease in CJ mRNA levels)
[7] = Table 5 panel, canonical junction qPCR, compound concentration having 50% response in CJ decrease, read-out: MYB IC50 (decrease in CJ mRNA levels)
[8] = Table 5 panel, canonical junction qPCR, compound concentration having 50% response in CJ decrease, read-out: SMN2 IC50 (decrease in CJ mRNA levels)

IC50 (HTT mRNA; [1])	IC50 (HTT mRNA; [2])	IC50 (MYB mRNA; [3])	IC50 (MYB mRNA; [4])	IC50 (SMN2 mRNA; [5])	IC50 (HTT mRNA; [6])	IC50 (MYB mRNA; [7])	IC50 (SMN2 mRNA; [8])	SMILES	AC50 (HTT mRNA; RT-qPCR)	AC50 (MYB mRNA; RT-qPCR)
100 to 1000 nM	< 100 nM	100 to 1000 nM	100 to 1000 nM	< 100 nM				Cc1cn2nc(-c3ccc4c(=O)n(C5CCN(CCO)C6(CC6)C5)ncc4n3)cc(C)c2n1 (stereo not shown) [Compound 1541, 2-(2,8-dimethylimidazo[1,2-b]pyridazin-6-yl)-6-[4-(2-hydroxyethyl)-4-azaspiro[2.5]octan-7-yl]pyrido-[2,3-d]pyridazin-5-one]	< 100 nM	100 to 1000 nM
> 10000 nM			> 10000 nM		> 10000 nM	> 10000 nM	> 10000 nM	O=C1c2ccc(-c3cn[nH]c3)cc2CCN1C1CCNCC1 [Compound 220, 2-(piperidin-4-yl)-6-(1H-pyrazol-4-yl)-3,4-dihydroisoquinolin-1-one]	> 10000 nM	> 10000 nM
100 to 1000 nM			100 to 1000 nM		100 to 1000 nM	100 to 1000 nM	< 100 nM	Cc1cn2cc(-c3ccc4c(=O)n(C5CCNC(C)(C)C5)cnc4c3)cc(F)c2n1 (stereo not shown) [Compound 237]	100 to 1000 nM	100 to 1000 nM
100 to 1000 nM			< 100 nM		100 to 1000 nM	100 to 1000 nM	< 100 nM	Cn1cc2cc(-c3ccc4c(=O)n(C5CCNCC5)cnc4c3)cc(F)c2n1 [Compound 206]	100 to 1000 nM	100 to 1000 nM
> 10000 nM	> 10000 nM	> 10000 nM	> 10000 nM	> 10000 nM				Cc1cc(-c2ccc3ncn(C4CCNCC4)c(=O)c3c2)cc2cn(C)nc12 [Compound 2169]	> 10000 nM	> 10000 nM
1000 to 10000 nM	1000 to 10000 nM	1000 to 10000 nM	1000 to 10000 nM	1000 to 10000 nM				Cc1cn2cc(-n3cnc4ccc(N5CCN(C)CC5)cc4c3=O)cc(F)c2n1 [Compound 2197]	1000 to 10000 nM	1000 to 10000 nM
100 to 1000 nM			< 100 nM		100 to 1000 nM	100 to 1000 nM	< 100 nM	Cc1cn2cc(-c3ccc4c(=O)n(C5CCNC6(CC6)C5)cnc4c3)cc(F)c2n1 (stereo not shown) [Compound 236]	100 to 1000 nM	100 to 1000 nM
> 10000 nM	> 10000 nM	> 10000 nM	> 10000 nM	> 10000 nM				Cc1cc(-c2nc3cc(N4CCNCC4)ccc3c(=O)[nH]2)cc2cn(C)nc12 [Compound 2213]	> 10000 nM	> 10000 nM
100 to 1000 nM	100 to 1000 nM	< 100 nM	< 100 nM	< 100 nM				Cn1cc2cc(-c3ncc4c(=O)n(C56CCC(N)(CC5)C6)ccc4n3)c(O)c(F)c2n1 [Compound 1468]	100 to 1000 nM	< 100 nM
1000 to 10000 nM			1000 to 10000 nM		1000 to 10000 nM	100 to 1000 nM	< 100 nM	Cc1cn2cc(-c3ccc4c(c3)CCN(C3CCNCC3)C4=O)cc(Cl)c2n1 [Compound 216, 6-[8-chloro-2-methylimidazo[1,2-a]pyridin-6-yl]-2-(piperidin-4-yl)-3,4-dihydroisoquinolin-1-one]	1000 to 10000 nM	100 to 1000 nM
> 10000 nM	> 10000 nM	> 10000 nM	> 10000 nM	> 10000 nM				Cn1cc2cc(-n3cnc4ccc(N5CCNCC5)cc4c3=O)cc(F)c2n1 [Compound 2196]	> 10000 nM	> 10000 nM
1000 to 10000 nM	100 to 1000 nM	100 to 1000 nM	100 to 1000 nM	< 100 nM				Cc1c(O)c(-c2ncc3c(=O)n([C@@H]4CC[C@@H](N)C4)ccc3n2)cc2cn(C)nc12 [Compound 1476, 6-[(1R,3R)-3-aminocyclopentyl]-2-(6-hydroxy-2,7-dimethyl-indazol-5-yl)pyrido[4,3-d]pyrimidin-5-one]	100 to 1000 nM	100 to 1000 nM
1000 to 10000 nM			1000 to 10000 nM		1000 to 10000 nM	1000 to 10000 nM	1000 to 10000 nM	Cc1cn2cc(-c3ccc4c(c3)CCN(C3CCNCC3)C4=O)c(C)cc2n1 [Compound 218, 6-[2,7-dimethylimidazo[1,2-a]pyridin-6-yl]-2-(piperidin-4-yl)-3,4-dihydroisoquinolin-1-one]	1000 to 10000 nM	1000 to 10000 nM
1000 to 10000 nM	100 to 1000 nM	< 100 nM	100 to 1000 nM					Cc1c(O)c(-c2nc(C)c3c(=O)n([C@@H]4CCNC5(CC5)C4)ccc3n2)cc2cn(C)nc12 [Compound 1515, (R)-2-(6-hydroxy-2,7-dimethyl-2H-indazol-5-yl)-4-methyl-6-(4-azaspiro[2.5]octan-7-yl)pyrido[4,3-d]pyrimidin-5(6H)-one]	100 to 1000 nM	< 100 nM
1000 to 10000 nM			100 to 1000 nM		1000 to 10000 nM	100 to 1000 nM	100 to 1000 nM	Cc1cn2nc(-c3ccc4c(c3)CCN(C3CCNCC3)C4=O)cc2c(C)n1 [Compound 223, 6-[4,6-dimethylpyrazolo[1,5-a]pyrazin-2-yl]-2-(piperidin-4-yl)-3,4-dihydroisoquinolin-1-one]	1000 to 10000 nM	100 to 1000 nM
1000 to 10000 nM			1000 to 10000 nM		> 10000 nM	1000 to 10000 nM	100 to 1000 nM	CN1CCC(n2cnc3cc(-c4ccc5nn(C)cc5c4)ccc3c2=O)CC1 [Compound 208]	> 10000 nM	1000 to 10000 nM
1000 to 10000 nM	1000 to 10000 nM	100 to 1000 nM	100 to 1000 nM	< 100 nM				Cc1cn2cc(-c3ncc4c(=O)n(C56CCC(N)(CC5)C6)ccc4n3)cc(F)c2n1 [Compound 1469, 6-(4-aminonorbornane-1-yl)-2-(8-fluoro-2-methyl-imidazo[1,2-a]pyridin-6-yl)pyrido[4,3-d]pyrimidin-5-one]	1000 to 10000 nM	100 to 1000 nM
> 10000 nM	1000 to 10000 nM	100 to 1000 nM	100 to 1000 nM	< 100 nM				Cc1c(O)c(-c2ccc3c(=O)n(C4CCNC4)cc(C)c3n2)cc2cn(C)nc12 (stereo not shown) [Compound 1467]	1000 to 10000 nM	100 to 1000 nM
100 to 1000 nM	< 100 nM	100 to 1000 nM	100 to 1000 nM	< 100 nM				COc1cc(-c2ccc3c(=O)n([C@H]4CCN[C@@H](C)C4)ccc3n2)nn2cc(C)nc12 [Compound 1519, 2-(8-methoxy-2-methyl-imidazo[1,2-b]pyridazin-6-yl)-6-[(2S,4S)-2-methyl-4-piperidyl]-1,6-naphthyridin-5-one]	< 100 nM	100 to 1000 nM
100 to 1000 nM	100 to 1000 nM	< 100 nM	100 to 1000 nM					Cc1c(O)c(-c2ncc3c(=O)n([C@H]4CCNC5(CC5)C4)ccc3n2)cc2cn(C)nc12 [Compound 1512]	100 to 1000 nM	< 100 nM

SMILES	IC50 (HTT mRNA; [1])	IC50 (HTT mRNA; [2])	IC50 (MYB mRNA; [3])	IC50 (MYB mRNA; [4])	IC50 (SMN2 mRNA; [5])	IC50 (HTT mRNA; [6])	IC50 (MYB mRNA; [7])	IC50 (SMN2 mRNA; [8])	AC50 (HTT mRNA; RT-qPCR)	AC50 (MYB mRNA; RT-qPCR)
CN1CCC(N(C)c2ccc3ncn(-c4cc(F)c5nn(C)cc5c4)c(=O)c3c2)CC1 [Compound 2199]	> 10000 nM	> 10000 nM	> 10000 nM	> 10000 nM	> 10000 nM				> 10000 nM	> 10000 nM
